Ends that are not written are not given here.
Assays:
Format in all cases: physicochemical
[1] = Rheology (viscosity) of peptide solutions with NaCl
Procedure: Rheology measurements were made for solutions of (AAKA)4 (concentration of 5 mg/mL or 3.5 mM) in 0.5 M and 1.0 M NaCl, as shown in FIG. 16. […] The shear-thinning behavior observed in these experiments was consistent with other oligopeptides hydrogels (Schneider, […], J. Am. Chem. Soc. 124:15030).
Another rheology experiment is illustrated in FIG. 17, for a solution of (AAKA)4 (concentration of 5 mg/mL) in 0.0 M, 1.0 M and 2.0 M NaCl. FIG. 17 illustrates three experimental curves for each concentration of NaCl.
Yet another rheology experiment is illustrated in FIG. 18, for a 5 mg/mL and a 10 mg/mL solution of (AAKA)4 in 1 M NaCl. FIG. 18 illustrates three experimental curves for each value of concentration of peptide.
As illustrated above, (AAKA)4 was conformationally unstable upon dissolution in water, prior to the addition of salt and consequent hydrogel formation. […] This is illustrated in FIG. 19, where the viscosity of a 5 mg/mL (AAKA)4 solution comprising 2 M NaCl was compared with the viscosity of a similar peptide solution wherein NaCl was added after ˜24 hours.

Hydrogel formation = assay: Hydrogel formation
Procedure: For the FT-IR (Fourier transform infrared), CD (circular dichroism), and Raman measurements of Ac-(AAKA)4-NH2, unless otherwise described, the peptide was dissolved in acidic D2O (pD=1.4) at a concentration of ˜15 mg/mL (˜10.5 mM), where the D2O was made acidic by the addition of DCl (Sigma-Aldrich). […] The measurements for the gelated state of the 12-mer, Ac-(AAKA)3-NH2, were carried out similarly, at a concentration of ˜27 mg/mL in D2O (pD=1.4). For the ECD measurements, Ac-(AAKA)3-NH2 and (AAKA)4 were dissolved in acidic D2O at concentrations of 2.4 mg/mL and 1 mg/mL, respectively, and the samples were measured at room temperature.
NaCl was added to a freshly aqueous solution of (AAKA)4, wherein the concentration of peptide was equal to or higher than 0.5 wt %. […] An example of such hydrogel is illustrated in FIG. 15.

[2] = UV-CD kinetics after dissolution in D2O, read at 198 nm and 215 nm
Procedure: (§1) The Raman spectra were obtained with the 442 nm (40 mW) excitation from a HeCd laser (Model IK 4601R-E, Kommon Electrics, USA) and recorded with a RM 100 Remishaw confocal microscope. The UV ECD spectra in the wavelength range of 180-250 nm of peptides were measured with a JASCO J-810 spectrapolarimeter in a 0.1 mm quartz cell with 0.05 nm resolution. Samples were placed in a nitrogen purged JASCO CD module. The temperature at the cuvette was controlled by means of a Peltier-type heating system (accuracy ±1° C.) set to 20° C. The spectra were obtained by averaging ten scans and were collected as ellipticity as a function of wavelength, and converted to units of molar absorptivities via the equation: […]
The UV-CD spectra of Ac-(AAKA)4-NH2 was acquired at various times after dissolution in deuterated water (D2O). The results are illustrated in FIG. 4. Initially a significant percentage of β-structure was observed, and in a time-dependent manner more flexible PPII-like conformations were observed.
The UV-CD kinetics of Ac-(AAKA)4-NH2, in terms of the readings at 198 nm and 215 nm as a function of time, were monitored. The results are illustrated in FIG. 5. The plots were fit to bi-exponential functions, reflecting a fast phase (˜18 minutes) and a slow phase (>300 minutes). The fast phase may reflect the kinetics of hydration/dissolution of the peptide. […]

[3] = Temperature-dependent UV-CD spectra; conditions: 3.5 mM in D2O, pH 2.7; intersection of two fitted straight lines
Procedure: as §1
The temperature-dependent UV-CD spectra of 3.5 mM Ac-(AAKA)4-NH2 measured at acid pH is illustrated in FIG. 8. […] The inset of FIG. 8 illustrates the change of the Δε measured at 214.5 nm as a function of temperature, reflecting the decrease of the β-sheet content with increasing temperature.
Two different modes were found in the relationship between the n-sheet content and temperature. The β-sheet content, as evaluated by Δε, […] linearly with temperatures below 300 K and remained almost constant after 350 K. The transition temperature between these two modes was around 320 K, as is defined by the intersection between the two straight lines, fitting the initial and final behaviors.

Row | Substance | viscosity as a function of peptide and NaCl concentration ([1]; 5 mg/mL (3.5 mM) in 0.5 M and 1.0 M NaCl) | viscosity of hydrogel when salt is added with delay ([1]; 5 mg/mL, 2 M NaCl added after ~24 hours, versus NaCl added at time zero) | hydrogel formation on addition of NaCl (Hydrogel formation; 1-year-old sample, 5 mg/mL (3.5 mM)) | hydrogel formation on addition of NaCl (Hydrogel formation; fresh aqueous solution, peptide equal to or higher than 0.5 wt %, final NaCl higher than 1.0 M) | fast phase of UV-CD kinetics (bi-exponential fit) [2] [min] | slow phase of UV-CD kinetics (bi-exponential fit) [2] [min] | hydrogel formation after dissolution (Hydrogel formation; ~15 mg/mL (~10.5 mM) in acidic D2O, pD 1.4) | transition temperature of β-sheet content (Δε at 214.5 nm) [3]
1 | AAKAAAKAAAKAAAKA [(AAKA)4] | more viscous gels | much less viscous and rigid hydrogel | did not result in hydrogel formation | rigid self-supporting hydrogel |  |  |  | 
2 | Ac-AAKAAAKAAAKAAAKA-NH2 [Ac-(AAKA)4-NH2] |  |  |  |  | ~18 | > 300 | formed a hydrogel shortly after dissolution | around 320 K
